Test results reported in US20250230193A1, “CYCLIC COMPOUND HAVING SELECTIVE KRAS INHIBITORY EFFECT ON HRAS AND NRAS” (CHUGAI SEIYAKU KABUSHIKI KAISHA, priority 2022, published 2025).

How the values were obtained:
[1] = target: GDP-bound HRAS wild-type protein (Homo sapiens, UniProt P01112); assay: Binding to HRAS by surface plasmon resonance (SPR), Single Cycle Kinetics; conditions: KD ratio, GDP-bound HRAS wild-type vs GDP-bound KRAS wild-type, SPR
[2] = target: GDP-bound NRAS wild-type protein (Homo sapiens, UniProt P01111); assay: Binding to NRAS by surface plasmon resonance (SPR), Single Cycle Kinetics; conditions: KD ratio, GDP-bound NRAS wild-type vs GDP-bound KRAS wild-type, SPR
Sequence of GDP-bound NRAS wild-type protein (P01111 whole entry): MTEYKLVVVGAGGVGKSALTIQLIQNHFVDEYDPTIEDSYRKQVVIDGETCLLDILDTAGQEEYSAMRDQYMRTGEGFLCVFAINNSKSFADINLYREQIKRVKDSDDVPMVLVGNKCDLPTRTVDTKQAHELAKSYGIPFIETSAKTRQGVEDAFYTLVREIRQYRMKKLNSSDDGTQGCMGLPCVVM

Sequence of GDP-bound HRAS wild-type protein (P01112 whole entry): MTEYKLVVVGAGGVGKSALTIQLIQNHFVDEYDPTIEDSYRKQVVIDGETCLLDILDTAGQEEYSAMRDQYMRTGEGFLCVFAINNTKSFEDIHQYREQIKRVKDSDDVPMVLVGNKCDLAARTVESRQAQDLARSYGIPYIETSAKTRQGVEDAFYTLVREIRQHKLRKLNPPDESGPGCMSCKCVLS

| Structure (SMILES) | HRAS/KRAS (ratio of KD value with respect to HRAS to KD value with respect to KRAS) [1] | NRAS/KRAS (ratio of KD value with respect to NRAS to KD value with respect to KRAS) [2] |
| --- | --- | --- |
| CCO[C@@H]1C[C@H]2C(=O)NC3(CCC3)C(=O)N(C)[C@@H](C3CCCC3)C(=O)N(C)[C@H](C(=O)N(C)C)CC(=O)N(C)[C@@H](CC)C(=O)N[C@@H]([C@@H](C)CC)C(=O)N(C)CC(=O)N(C)[C@H]3CCCCN(C3=O)[C@@H](Cc3ccc(C(F)(F)F)cc3)C(=O)N(C)CC(=O)N[C@@H](CCc3ccc4sccc4c3)C(=O)N2C1 [PP0887] | C (A compound having a KD ratio of 0.1 or more and less than 3 is denoted as C) | C (A compound having a KD ratio of 0.1 or more and less than 3 is denoted as C) |
| CCO[C@@H]1C[C@H]2C(=O)NC3(CCC3)C(=O)N(C)[C@@H](C3CCCC3)C(=O)N(C)[C@H](C(=O)N(C)C)CC(=O)N(C)[C@@H](CC)C(=O)N[C@@H]([C@@H](C)CC)C(=O)N(C)CC(=O)N(C)[C@H]3CCCCN(C3=O)[C@@H](Cc3ccc(C(F)(F)F)cc3)C(=O)N(C)CC(=O)N[C@@H](CCc3ccc4ccsc4c3)C(=O)N2C1 [PP0888] | B (a compound having 3 or more and less than 10 is denoted as B) | C (A compound having a KD ratio of 0.1 or more and less than 3 is denoted as C) |
| CCO[C@@H]1C[C@H]2C(=O)NC3(CCC3)C(=O)N(C)[C@@H](C3CCCC3)C(=O)N(C)[C@H](C(=O)N(C)C)CC(=O)N(C)[C@@H](CC)C(=O)N[C@@H]([C@@H](C)CC)C(=O)N(C)CC(=O)N(C)[C@H]3CCCCCN(C3=O)[C@@H](Cc3ccc(C(F)(F)F)cc3)C(=O)N(C)CC(=O)N[C@@H](CCc3c(F)c(F)c(C(F)(F)F)c(F)c3F)C(=O)N2C1 [PP0891] | B (a compound having 3 or more and less than 10 is denoted as B) | B (a compound having 3 or more and less than 10 is denoted as B) |
| CCO[C@@H]1C[C@H]2C(=O)NC3(CCC3)C(=O)N(C)[C@@H](C3CCCC3)C(=O)N(C)[C@H](C(=O)N(C)C)CC(=O)N(C)[C@@H](CC)C(=O)N[C@@H]([C@@H](C)CC)C(=O)N(C)CC(=O)N(C)[C@H]3CCCCCN(C3=O)[C@@H](Cc3ccc(C(F)(F)F)cc3)C(=O)N(C)CC(=O)N[C@@H](CCc3ccc4sccc4c3)C(=O)N2C1 [PP0892] | B (a compound having 3 or more and less than 10 is denoted as B) | B (a compound having 3 or more and less than 10 is denoted as B) |
| CCCN1C(=O)CN(C)C(=O)CN(C)C(=O)[C@H]([C@@H](C)CC)NC(=O)[C@@H]2CCCCCOc3ccc(cc3)C[C@H]1C(=O)N(C)CC(=O)N[C@@H](CCc1cc(F)c(C(F)(F)F)c(F)c1)C(=O)N1C[C@H](OCC)C[C@H]1C(=O)NC1(CCCC1)C(=O)N(C)[C@@H](C1CCCC1)C(=O)N(C)[C@H](C(=O)N(C)C)CC(=O)N2C [PP0895] | C (A compound having a KD ratio of 0.1 or more and less than 3 is denoted as C) | C (A compound having a KD ratio of 0.1 or more and less than 3 is denoted as C) |
| CCCN1C(=O)CN(C)C(=O)CN(C)C(=O)[C@H]([C@@H](C)CC)NC(=O)[C@@H]2CCCCCCOc3ccc(cc3)C[C@H]1C(=O)N(C)CC(=O)N[C@@H](CCc1cc(F)c(C(F)(F)F)c(F)c1)C(=O)N1C[C@H](OCC)C[C@H]1C(=O)NC1(CCCC1)C(=O)N(C)[C@@H](C1CCCC1)C(=O)N(C)[C@H](C(=O)N(C)C)CC(=O)N2C [PP0896] | C (A compound having a KD ratio of 0.1 or more and less than 3 is denoted as C) | C (A compound having a KD ratio of 0.1 or more and less than 3 is denoted as C) |
| CCO[C@@H]1C[C@H]2C(=O)NC3(CCC3)C(=O)N(C)[C@@H](C3CCCC3)C(=O)N(C)[C@H](C(=O)N(C)C)CC(=O)N(C)[C@@H](CC)C(=O)N[C@@H]([C@@H](C)CC)C(=O)N(C)CC(=O)N(C)[C@H]3CCCCCN(C3=O)[C@@H](Cc3ccc(F)c(F)c3)C(=O)N(C)CC(=O)N[C@@H](CCc3cc(F)c(C(F)(F)F)c(F)c3)C(=O)N2C1 [PP0907] | B (a compound having 3 or more and less than 10 is denoted as B) | B (a compound having 3 or more and less than 10 is denoted as B) |
| CCO[C@@H]1C[C@H]2C(=O)NC3(CCC3)C(=O)N(C)[C@@H](C3CCCC3)C(=O)N(C)[C@H](C(=O)N(C)C)CC(=O)N(C)[C@@H](CC)C(=O)N[C@@H]([C@@H](C)CC)C(=O)N(C)CC(=O)N(C)[C@H]3CCCCCN(C3=O)[C@@H](Cc3ccc(F)cc3Cl)C(=O)N(C)CC(=O)N[C@@H](CCc3cc(F)c(C(F)(F)F)c(F)c3)C(=O)N2C1 [PP0908] | B (a compound having 3 or more and less than 10 is denoted as B) | B (a compound having 3 or more and less than 10 is denoted as B) |
| CCO[C@@H]1C[C@H]2C(=O)NC3(CCC3)C(=O)N(C)[C@@H](C3CCCC3)C(=O)N(C)[C@H](C(=O)N(C)C)CC(=O)N(C)[C@@H](CC)C(=O)N[C@@H]([C@@H](C)CC)C(=O)N(C)CC(=O)N(C)[C@H]3CCCCCN(C3=O)[C@@H](Cc3ccc(F)c(Cl)c3)C(=O)N(C)CC(=O)N[C@@H](CCc3cc(F)c(C(F)(F)F)c(F)c3)C(=O)N2C1 [PP0909] | B (a compound having 3 or more and less than 10 is denoted as B) | B (a compound having 3 or more and less than 10 is denoted as B) |
| CCO[C@@H]1C[C@H]2C(=O)NC3(CCC3)C(=O)N(C)[C@@H](C3CCCC3)C(=O)N(C)[C@H](C(=O)N(C)C)CC(=O)N(C)[C@@H](CC)C(=O)N[C@@H]([C@@H](C)CC)C(=O)N(C)CC(=O)N(C)[C@H]3CCCCCN(C3=O)[C@@H](Cc3ccc4ccsc4c3)C(=O)N(C)CC(=O)N[C@@H](CCc3cc(F)c(C(F)(F)F)c(F)c3)C(=O)N2C1 [PP0910] | B (a compound having 3 or more and less than 10 is denoted as B) | B (a compound having 3 or more and less than 10 is denoted as B) |
| CCO[C@@H]1C[C@H]2C(=O)NC3(CCC3)C(=O)N(C)[C@@H](C3CCCC3)C(=O)N(C)[C@H](C(=O)N(C)C)CC(=O)N(C)[C@@H](CC)C(=O)N[C@@H]([C@@H](C)CC)C(=O)N(C)CC(=O)N(C)[C@H]3CCCCCN(C3=O)[C@@H](Cc3ccc(F)cc3C)C(=O)N(C)CC(=O)N[C@@H](CCc3cc(F)c(C(F)(F)F)c(F)c3)C(=O)N2C1 [PP0911] | B (a compound having 3 or more and less than 10 is denoted as B) | B (a compound having 3 or more and less than 10 is denoted as B) |
| CCO[C@@H]1C[C@H]2C(=O)NC3(CCC3)C(=O)N(C)[C@@H](C3CCCC3)C(=O)N(C)[C@H](C(=O)N(C)C)CC(=O)N(C)[C@@H](CC)C(=O)N[C@@H]([C@@H](C)CC)C(=O)N(C)CC(=O)N(C)[C@H]3CCCCCN(C3=O)[C@@H](Cc3ccc(F)c(C)c3)C(=O)N(C)CC(=O)N[C@@H](CCc3cc(F)c(C(F)(F)F)c(F)c3)C(=O)N2C1 [PP0912] | B (a compound having 3 or more and less than 10 is denoted as B) | B (a compound having 3 or more and less than 10 is denoted as B) |
| CCO[C@@H]1C[C@H]2C(=O)NC3(CCC3)C(=O)N(C)[C@@H](C3CCCC3)C(=O)N(C)[C@H](C(=O)N(C)C)CC(=O)N(C)[C@@H](CC)C(=O)N[C@@H]([C@@H](C)CC)C(=O)N(C)CC(=O)N(C)[C@H]3CCCCCN(C3=O)[C@@H](Cc3nccs3)C(=O)N(C)CC(=O)N[C@@H](CCc3cc(F)c(C(F)(F)F)c(F)c3)C(=O)N2C1 [PP0913] | B (a compound having 3 or more and less than 10 is denoted as B) | B (a compound having 3 or more and less than 10 is denoted as B) |
| CCO[C@@H]1C[C@H]2C(=O)NC3(CCC3)C(=O)N(C)[C@@H](C3CCCC3)C(=O)N(C)[C@H](C(=O)N(C)C)CC(=O)N(C)[C@@H](CC)C(=O)N[C@@H]([C@@H](C)CC)C(=O)N(C)CC(=O)N(C)[C@H]3CCCCCN(C3=O)[C@@H](Cc3ccc(F)cc3OC)C(=O)N(C)CC(=O)N[C@@H](CCc3cc(F)c(C(F)(F)F)c(F)c3)C(=O)N2C1 [PP0914] | B (a compound having 3 or more and less than 10 is denoted as B) | B (a compound having 3 or more and less than 10 is denoted as B) |
| CCO[C@@H]1C[C@H]2C(=O)NC3(CCC3)C(=O)N(C)[C@@H](C3CCCC3)C(=O)N(C)[C@H](C(=O)N(C)C)CC(=O)N(C)[C@@H](CC)C(=O)N[C@@H]([C@@H](C)CC)C(=O)N(C)CC(=O)N(C)[C@H]3CCCCCN(C3=O)[C@@H](Cc3ccc(F)c(OC)c3)C(=O)N(C)CC(=O)N[C@@H](CCc3cc(F)c(C(F)(F)F)c(F)c3)C(=O)N2C1 [PP0915] | B (a compound having 3 or more and less than 10 is denoted as B) | B (a compound having 3 or more and less than 10 is denoted as B) |
| CCO[C@@H]1C[C@H]2C(=O)NC3(CCC3)C(=O)N(C)[C@@H](C3CCCC3)C(=O)N(C)[C@H](C(=O)N3CCOCC3)CC(=O)N(C)[C@@H](CC(C)C)C(=O)N[C@@H]([C@@H](C)CC)C(=O)N(C)CC(=O)N(C)[C@H]3CCCCCN(C3=O)[C@@H](Cc3ccc(F)c(F)c3)C(=O)N(C)CC(=O)N[C@@H](CCc3cc(F)c(C(F)(F)F)c(F)c3)C(=O)N2C1 [PP0917] | B (a compound having 3 or more and less than 10 is denoted as B) | B (a compound having 3 or more and less than 10 is denoted as B) |
